Test results from patent publication US12448369B2 (Edgewise Therapeutics, Inc., priority 2023, dated 2025).

Experiments:
[1] = tested on: Rabbit Psoas myofibrils (skeletal myosin ATPase); assay: Myofibril ATPase assay, rabbit psoas (skeletal) myofibrils; assay type: biochemical; details: rabbit psoas myofibrils; Y75 value
Outline: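 Myofibrils homogenized in Triton X-100 buffer were assayed in pH 7.0 PIPES with defined Ca2+/EGTA. Myosin-driven ADP formation was coupled to NADH oxidation, with depletion monitored at 340 nm. Each value is the concentration that lowers activity to 75% of vehicle or, for activators, raises it to 125%.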

[2] = tested on: Porcine atria myofibrils (atrial myosin ATPase); assay: Myofibril ATPase assay, porcine atria myofibrils; assay type: biochemical; details: porcine atria myofibrils; Y75 value (75% activity relative to no compound)
Outline: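 Values are Y75 (concentration cutting ATPase activity to 75% of vehicle) or Y125 (raising it to 125%), taken from 4-parameter logistic fits. Rates come from NADH disappearance at 340 nm in a PK/LDH-coupled assay with porcine atria myofibrils.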

[3] = molecular target: T1, Porcine ventricle myofibrils (ventricular myosin ATPase) (Sus scrofa, UniProt P79293); assay: Myofibril ATPase assay, porcine ventricle myofibrils; assay type: biochemical, porcine (Yucatan minipigs); details: porcine ventricle myofibrils; Y75 value
T1 construct: Myofibrils from porcine cardiac muscle was isolated from the left ventricle of Yucatan minipigs; tissue Exemplar Genetics; host or cells: left ventricle of Yucatan minipigs, myofibrils prepared in house
T1 sequence (P79293 whole entry): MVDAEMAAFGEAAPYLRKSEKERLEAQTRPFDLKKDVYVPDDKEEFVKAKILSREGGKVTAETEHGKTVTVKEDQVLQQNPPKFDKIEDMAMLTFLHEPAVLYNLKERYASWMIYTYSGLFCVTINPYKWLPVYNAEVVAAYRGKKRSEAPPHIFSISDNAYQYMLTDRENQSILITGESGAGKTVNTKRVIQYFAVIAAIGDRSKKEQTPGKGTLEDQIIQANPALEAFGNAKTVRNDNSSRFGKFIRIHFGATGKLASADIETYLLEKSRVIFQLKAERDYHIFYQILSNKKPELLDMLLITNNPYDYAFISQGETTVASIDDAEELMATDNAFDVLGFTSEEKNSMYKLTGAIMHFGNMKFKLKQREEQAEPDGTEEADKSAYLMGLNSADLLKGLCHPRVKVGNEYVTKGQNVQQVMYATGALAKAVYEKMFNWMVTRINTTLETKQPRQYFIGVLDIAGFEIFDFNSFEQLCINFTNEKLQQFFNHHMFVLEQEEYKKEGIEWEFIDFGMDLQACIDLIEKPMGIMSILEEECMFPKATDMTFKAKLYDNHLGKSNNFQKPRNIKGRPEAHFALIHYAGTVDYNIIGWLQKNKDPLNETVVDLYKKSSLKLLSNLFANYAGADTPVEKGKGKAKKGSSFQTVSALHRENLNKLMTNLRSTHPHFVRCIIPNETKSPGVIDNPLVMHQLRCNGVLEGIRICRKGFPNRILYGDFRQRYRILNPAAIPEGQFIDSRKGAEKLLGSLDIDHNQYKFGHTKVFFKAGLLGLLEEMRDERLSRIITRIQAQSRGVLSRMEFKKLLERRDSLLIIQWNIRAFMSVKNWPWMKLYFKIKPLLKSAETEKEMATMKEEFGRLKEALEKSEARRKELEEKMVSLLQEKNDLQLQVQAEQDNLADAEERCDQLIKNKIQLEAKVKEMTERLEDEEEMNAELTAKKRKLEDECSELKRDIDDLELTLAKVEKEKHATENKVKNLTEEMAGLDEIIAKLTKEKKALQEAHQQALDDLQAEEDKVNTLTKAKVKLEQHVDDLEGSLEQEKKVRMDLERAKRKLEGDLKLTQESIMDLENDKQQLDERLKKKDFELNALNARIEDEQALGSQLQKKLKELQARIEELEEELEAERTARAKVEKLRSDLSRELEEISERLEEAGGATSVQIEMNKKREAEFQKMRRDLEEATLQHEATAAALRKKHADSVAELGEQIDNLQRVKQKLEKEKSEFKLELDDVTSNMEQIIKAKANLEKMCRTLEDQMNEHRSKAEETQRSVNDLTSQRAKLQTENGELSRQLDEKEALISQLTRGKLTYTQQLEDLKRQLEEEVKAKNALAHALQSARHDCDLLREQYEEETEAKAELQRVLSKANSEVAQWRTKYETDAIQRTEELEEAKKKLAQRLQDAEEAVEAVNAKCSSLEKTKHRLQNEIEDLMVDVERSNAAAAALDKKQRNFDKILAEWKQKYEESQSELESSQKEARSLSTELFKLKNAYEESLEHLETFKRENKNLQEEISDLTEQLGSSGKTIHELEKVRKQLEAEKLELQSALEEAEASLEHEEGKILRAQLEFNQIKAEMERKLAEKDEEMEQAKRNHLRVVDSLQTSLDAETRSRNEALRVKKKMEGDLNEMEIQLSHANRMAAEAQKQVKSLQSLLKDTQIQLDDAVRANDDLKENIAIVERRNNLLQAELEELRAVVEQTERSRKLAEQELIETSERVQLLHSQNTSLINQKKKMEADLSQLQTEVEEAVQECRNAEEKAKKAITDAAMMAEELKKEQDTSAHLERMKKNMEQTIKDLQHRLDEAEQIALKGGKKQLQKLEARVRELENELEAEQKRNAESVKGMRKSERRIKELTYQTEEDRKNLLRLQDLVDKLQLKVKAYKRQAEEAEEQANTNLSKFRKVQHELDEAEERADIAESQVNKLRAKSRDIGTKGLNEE
Outline: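 Left-ventricle myofibrils from Yucatan minipigs were tested with a PK/LDH-coupled system, following NADH loss at 340 nm every 1.5-2 min for 75 min. Slopes were normalized to vehicle wells and fit to a 4-parameter logistic model; values are Y75 (25% ATPase reduction) or Y125 concentrations.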

Skeletal EC25 [1] [µM]	Atrial EC25 [2] [µM]	Ventricular EC25 [3] [µM]	SMILES
3.22	1.91	100.00	Cc1c(CC(=O)N[C@@H](C)c2ncc(C#N)cc2F)c(=O)[nH]c2ccc(O)nc12 [compound 166]
0.15	1.06	10.52	COC[C@H](NC(=O)Cc1c(C)c2c(C)nccc2[nH]c1=O)c1ccc(C#N)cc1F [compound 169]
0.03	0.08	1.02	COC[C@H](NC(=O)Cc1c(C)c2c(C#N)nccc2[nH]c1=O)c1ccc(C#N)cc1F [compound 170]
15.02	22.46	100.00	Cc1c(CC(=O)N[C@H](C)c2ccc(C#N)cc2F)c(=O)[nH]c2cnnc(C#N)c12 [compound 171]
0.04	0.10	3.78	Cc1c(CC(=O)N[C@@H](C)c2ccc(C#N)cc2F)c(=O)[nH]c2cnnc(C#N)c12 [compound 172]
100.00	100.00	100.00	Cc1c(CC(=O)N[C@H](CO)c2ccc(C#N)cc2F)c(=O)[nH]c2cnnc(C#N)c12 [compound 175]
13.03	100.00	67.50	Cc1c(CC(=O)N[C@H](CO)c2ccc(F)cc2F)c(=O)[nH]c2ccnc(OC3CC3)c12 [compound 199]
0.19	3.03	100.00	Cc1c(CC(=O)N[C@@H](CO)c2ccc(F)cc2F)c(=O)[nH]c2ccnc(OC3CC3)c12 [compound 200]
1.02	100.00	100.00	Cc1c(CC(=O)N[C@H](C)c2ccc(C#N)cc2F)c(=O)[nH]c2ccnc(OC3CC3)c12 [compound 201]
0.11	0.11	0.83	Cc1c(CC(=O)N[C@@H](C)c2ccc(C#N)cc2F)c(=O)[nH]c2ccnc(OC3CC3)c12 [compound 202]
1.10	100.00	100.00	Cc1c(CC(=O)N[C@H](CO)c2ccc(C#N)cc2F)c(=O)[nH]c2ccnc(OC3CC3)c12 [compound 203]
0.07	0.47	7.78	Cc1c(CC(=O)N[C@@H](CO)c2ccc(C#N)cc2F)c(=O)[nH]c2ccnc(OC3CC3)c12 [compound 204]
0.40	100.00	100.00	CC(=O)N1C[C@H](NC(=O)Cc2c(C)c3c(C)nccc3[nH]c2=O)c2c(F)cc(F)cc21 [compound 206]
7.04	30.20	100.00	Cc1c(CC(=O)N[C@H](CO)c2ccc(F)cc2F)c(=O)[nH]c2ccc(C#N)nc12 [compound 210]
22.09	7.02	53.99	Cc1c(CC(=O)N[C@@H](CO)c2ccc(F)cc2F)c(=O)[nH]c2ccc(C#N)nc12 [compound 211]
100.00	100.00	100.00	Cc1c(CC(=O)N[C@H](CO)c2ccc(F)cc2F)c(=O)[nH]c2ccc(C(F)(F)F)nc12 [compound 216]
0.71	0.36	6.79	Cc1c(CC(=O)N[C@@H](CO)c2ccc(F)cc2F)c(=O)[nH]c2ccc(C(F)(F)F)nc12 [compound 217]
14.86	100.00	100.00	Cc1c(CC(=O)N[C@H](CO)c2ccc(C#N)cc2F)c(=O)[nH]c2ccc(C(F)(F)F)nc12 [compound 218]
0.14	0.12	7.16	Cc1c(CC(=O)N[C@@H](CO)c2ccc(C#N)cc2F)c(=O)[nH]c2ccc(C(F)(F)F)nc12 [compound 219]
100.00	100.00	100.00	Cc1c(CC(=O)N[C@H](CO)c2ccc(C#N)cc2F)c(=O)[nH]c2ccc(C#N)nc12 [compound 220]
2.27	1.12	45.66	Cc1c(CC(=O)N[C@@H](CO)c2ccc(C#N)cc2F)c(=O)[nH]c2ccc(C#N)nc12 [compound 221]

Skeletal EC25 [1] [µM]	Atrial EC25 [2] [µM]	Ventricular EC25 [3] [µM]	SMILES
100.00	100.00	100.00	Cc1nccc2[nH]c(=O)c(CC(=O)Nc3c[nH]c4cc(F)cc(F)c34)c(C)c12 [compound 228]
4.20	8.21	34.95	Cc1c(CC(=O)N[C@H](CO)c2ccc(F)cc2F)c(=O)[nH]c2ccnc(C#N)c12 [compound 229]
0.02	0.11	0.96	Cc1c(CC(=O)N[C@@H](CO)c2ccc(F)cc2F)c(=O)[nH]c2ccnc(C#N)c12 [compound 230]
100.00	100.00	100.00	Cc1c(CC(=O)N[C@H](CO)c2ccc(F)cc2F)c(=O)[nH]c2ccnc(C(F)(F)F)c12 [compound 231]
0.02	0.47	2.74	Cc1c(CC(=O)N[C@@H](CO)c2ccc(F)cc2F)c(=O)[nH]c2ccnc(C(F)(F)F)c12 [compound 232]
100.00	100.00	100.00	Cc1nccc2[nH]c(=O)c(CC(=O)NC(CO)c3ncccc3F)c(C)c12 (stereo not drawn) [compound 237]
100.00	100.00	100.00	Cc1c(CC(=O)N[C@@H](C)c2ccc(F)cc2F)c(=O)[nH]c2cnnc(O)c12 [compound 240]
100.00	100.00	100.00	Cc1c(CC(=O)N[C@H](CO)c2ncc(F)cc2F)c(=O)[nH]c2ccc(C#N)nc12 [compound 259]
33.76	2.40	100.00	Cc1c(CC(=O)N[C@@H](CO)c2ncc(F)cc2F)c(=O)[nH]c2ccc(C#N)nc12 [compound 260]
26.68	100.00	100.00	Cc1c(CC(=O)N[C@H](CO)c2ncc(F)cc2F)c(=O)[nH]c2ccnc(C#N)c12 [compound 261]
0.13	0.19	0.67	Cc1c(CC(=O)N[C@@H](CO)c2ncc(F)cc2F)c(=O)[nH]c2ccnc(C#N)c12 [compound 262]
100.00	100.00	100.00	Cc1c(CC(=O)N[C@H](CO)c2ncc(F)cc2F)c(=O)[nH]c2ccnc(C(F)(F)F)c12 [compound 263]
0.57	0.29	2.73	Cc1c(CC(=O)N[C@@H](CO)c2ncc(F)cc2F)c(=O)[nH]c2ccnc(C(F)(F)F)c12 [compound 264]
2.47	100.00	34.76	Cc1c(CC(=O)N[C@H](C)c2ccc(F)cc2F)c(=O)[nH]c2ccnc(C#N)c12 [compound 269]
100.00	100.00	100.00	Cc1c(CC(=O)N[C@H](C)c2ccc(F)cc2F)c(=O)[nH]c2ccnc(C(F)(F)F)c12 [compound 270]
0.14	1.25	15.06	Cc1c(CC(=O)N[C@@H](C)c2ccc(F)cc2F)c(=O)[nH]c2ccnc(NC3CC3)c12 [compound 276]
82.10	100.00	84.29	Cc1c(CC(=O)N[C@@H](C)c2ccc(F)cc2F)c(=O)[nH]c2ccnc(NCC(C)C)c12 [compound 277]
2.73	17.26	100.00	Cc1c(CC(=O)N[C@@H](C)c2ccc(F)cc2F)c(=O)[nH]c2ccnc(Nc3ccccc3)c12 [compound 278]
0.34	0.27	5.52	Cc1c(CC(=O)N[C@@H](C)c2ccc(F)cc2F)c(=O)[nH]c2ccc(C#N)nc12 [compound 281]
100.00	100.00	100.00	Cc1nccc2[nH]c(=O)c(CC(=O)N[C@H](CO)c3ccncc3)c(C)c12 [compound 292]
73.40	100.00	100.00	Cc1nccc2[nH]c(=O)c(CC(=O)N[C@@H](CO)c3ccncc3)c(C)c12 [compound 293]
